{"source": "patent US20110158944A1", "about": "“BRAF BIOMARKERS” (priority 2007, published 2011)", "key": {"WM-115": {"system": "WM-115", "assay": "Cell proliferation IC50 (Cell Titer Glo)", "assay_type": "cell-based, human", "settings": "4 days continuous exposure", "description": "(§1) IC50 Cell proliferation measurements. Cell proliferation was assessed in the 41 tumor cell lines set forth in Table 2 after 4 days of continuous exposure to either the ERK1/2 inhibitor, compound a or the MEK inhibitor compound b (PD0325901) using Promega Cell Titer Glo reagent (Promega Corp, Madison, Wis.). Promega's CellTiter-Glo™ Luminescent Cell Viability Assay is a sensitive method for assaying cell proliferation using a stable form of luciferase to measure ATP as an indicator of viable cells. This reagent allows a homogeneous method of determining cell number by quantitation of ATP. The luciferase luminescent signal produced is proportional to the number of viable cells present in culture.\n(§2) A 1000× compound dose response curve, containing 8 dilutions of each compound, was prepared on a 96-well plate. Compounds were diluted in 100% DMSO to the following (1000×) concentrations: compound b: 1000 μM, 333 μM, 111 μM, 37 μM, 12 μM, 4.1 μM, 1.4 μM and 0.5 μM; compound a: 3000 μM, 1000 μM, 333 μM, 111 μM, 37 μM, 12 μM, 4.1 μM and 1.4 μM. This compound source plate was sealed and kept frozen between uses.\n(§3) Cells were grown in RPMI 1640 medium supplemented with 10% Fetal Bovine Serum, 2 mM Glutamine and non-essential amino acids or DMEM/F12 Media containing the same supplements. On day zero, cells were trypsinized, counted and plated into wells of a 96-well Wallac TC Isoplate (Perkin-Elmer Wallac, Gaithersburg, Md.) at a density of 1500-2000 cells per well in 50 μl of complete media. An additional 6-8 replicate well of the cells at the same density were plated on a separate Wallac TC Isoplate. This plate was developed on day 1 to determine the cell-growth baseline.\n(§4) On day 1 of treatment, compound was diluted to 2× in media and immediately added to the cells as follows: one ml of media was added to each well of a deep-well 96-well plate and 2 μl of 1000× compound was added with mixing to make 2× compound in media. 50 μl of the media containing 2× compound was added to the cell plates in duplicate points so the final concentrations for each well were as outlined in Table 1. The plates were then returned to a 37° C. incubator and left undisturbed for 4 days. The day 1 (baseline) plates were developed by first adding 50 μl media (without compound) to bring the volume in each well to 100 μl, then adding 100 μl of Cell Titer Glo reagent (as below).\n(§5) After four days of treatment, the plates were developed with Cell Titer Glo (CTG) reagent (Promega Corp.; Madison, Wis.). Reagent was reconstituted as described in the product insert. 100 μl of reagent was added to all treatment and control wells and the plates were gently shaken for 5 minutes then incubated an additional 5 minutes before reading in an Analyst AD (Molecular Devices Corporation; Sunnyvale, Calif.) using the Luminescence settings.\n(§6) Data was analyzed in Excel using XLfit 4.2, fit model #205 (Dose Response One Site)"}, "TT": {"system": "TT", "assay": "Cell proliferation IC50 (Cell Titer Glo)", "assay_type": "cell-based", "settings": "Homo sapiens, 96 h, Thyroid, BRAF V600V Wild type, 4 days continuous exposure", "description": "as §1, §2, §3, §4, §5, §6"}, "A204": {"system": "A204", "assay": "Cell proliferation IC50 (Cell Titer Glo)", "assay_type": "cell-based", "settings": "Homo sapiens, read-out: IC50 cell proliferation", "description": "as §1, §2, §3, §4, §5, §6"}, "HT-144": {"system": "HT-144", "assay": "Cell proliferation IC50 (Cell Titer Glo)", "assay_type": "cell-based", "settings": "Homo sapiens, read-out: IC50 cell proliferation", "description": "as §1, §2, §3, §4, §5, §6"}, "H292": {"system": "H292", "assay": "Cell proliferation IC50 (Cell Titer Glo)", "assay_type": "cell-based", "settings": "Homo sapiens, NCI-H292, 96 h, read-out: IC50 cell proliferation", "description": "as §1, §2, §3, §4, §5, §6"}, "Daudi": {"system": "Daudi", "assay": "Cell proliferation IC50 (Cell Titer Glo)", "assay_type": "cell-based", "settings": "Homo sapiens, 96 h, read-out: IC50 cell proliferation", "description": "as §1, §2, §3, §4, §5, §6"}, "ES-2": {"system": "ES-2", "assay": "Cell proliferation IC50 (Cell Titer Glo)", "assay_type": "cell-based", "settings": "Homo sapiens, read-out: IC50 cell proliferation", "description": "as §1, §2, §3, §4, §5, §6"}, "SK-Mel-31": {"system": "SK-Mel-31", "assay": "Cell proliferation IC50 (Cell Titer Glo)", "assay_type": "cell-based", "settings": "Homo sapiens, 96 h, read-out: IC50 cell proliferation", "description": "as §1, §2, §3, §4, §5, §6"}, "LOX": {"system": "LOX", "assay": "Cell proliferation IC50 (Cell Titer Glo)", "assay_type": "cell-based", "settings": "Homo sapiens, 96 h, read-out: IC50 cell proliferation", "description": "as §1, §2, §3, §4, §5, §6"}, "SK-Mel3": {"system": "SK-Mel3", "assay": "Cell proliferation IC50 (Cell Titer Glo)", "assay_type": "cell-based", "settings": "Homo sapiens, read-out: IC50 cell proliferation", "description": "as §1, §2, §3, §4, §5, §6"}, "A375": {"system": "A375", "assay": "Cell proliferation IC50 (Cell Titer Glo)", "assay_type": "cell-based", "settings": "Homo sapiens, A-375, 96 h, read-out: IC50 cell proliferation", "description": "as §1, §2, §3, §4, §5, §6"}, "BHT 101": {"system": "BHT 101", "assay": "Cell proliferation IC50 (Cell Titer Glo)", "assay_type": "cell-based", "settings": "Homo sapiens, read-out: IC50 cell proliferation", "description": "as §1, §2, §3, §4, §5, §6"}, "IGROV-1": {"system": "IGROV-1", "assay": "Cell proliferation IC50 (Cell Titer Glo)", "assay_type": "cell-based", "settings": "Homo sapiens, read-out: IC50 cell proliferation", "description": "as §1, §2, §3, §4, §5, §6"}, "M14": {"system": "M14", "assay": "Cell proliferation IC50 (Cell Titer Glo)", "assay_type": "cell-based", "settings": "Homo sapiens, read-out: IC50 cell proliferation", "description": "as §1, §2, §3, §4, §5, §6"}, "[1]": {"system": "V600E BRAF homozygous genotype cell lines", "assay": "Cell proliferation IC50 (Cell Titer Glo), summary by genotype", "assay_type": "cell-based", "settings": "Homo sapiens, read-out: IC50 cell proliferation", "description": "as §1, §2, §3\nas §4, with “The day 1 (baseline) plates were developed by first adding 50 μl media (without compound) to bring the volume in each well to 100 μl, then adding 100 μl of Cell Titer Glo reagent (as below).” left out\nas §5, with “Reagent was reconstituted as described in the product insert.” left out\nas §6"}, "[2]": {"system": "Cell lines with either the heterozygote V600E BRAF mutation or wild type BRAF genotype", "assay": "Cell proliferation IC50 (Cell Titer Glo), summary by genotype", "assay_type": "cell-based", "settings": "Homo sapiens, read-out: IC50 cell proliferation", "description": "as §1, §2, §3\nas §4, with “The day 1 (baseline) plates were developed by first adding 50 μl media (without compound) to bring the volume in each well to 100 μl, then adding 100 μl of Cell Titer Glo reagent (as below).” left out\nas §5, with “Reagent was reconstituted as described in the product insert.” left out\nas §6"}}, "note": "Like-named read-outs stand apart in the source and are kept apart here.", "data": [{"compound": "O=C(Nc1ccc2[nH]nc(-c3ccncc3)c2c1)C1CCN(CC(=O)N2CCN(c3ccc(-c4ncccn4)cc3)CC2)C1", "note": "(stereo not shown) [cpd. a]", "values": [{"measurement": "IC50", "setting": "WM-115; Homo sapiens, WM-115, 96 h, WM-115, Melanoma, BRAF V600D Heterozygous, read-out: IC50 cell proliferation", "value": "< 100", "unit": "nM"}, {"measurement": "IC50", "setting": "WM-115; WM-115, Melanoma, BRAF V600D Heterozygous, read-out: IC50 cell proliferation", "value": 60, "unit": "nM"}, {"measurement": "IC50", "setting": "TT", "value": 406, "unit": "nM"}, {"measurement": "IC50", "setting": "A204; 96 h, A204, Rhabdomyosarcoma, BRAF V600V Wild type, 4 days continuous exposure", "value": "> 3000", "unit": "nM"}, {"measurement": "IC50", "setting": "HT-144; 96 h, HT-144, Melanoma, BRAF V600E Homozygous, 4 days continuous exposure", "value": 60, "unit": "nM"}, {"measurement": "IC50", "setting": "H292; H292, Lung, BRAF V600V Wild type, 4 days continuous exposure", "value": 90, "unit": "nM"}, {"measurement": "IC50", "setting": "Daudi; Leukemia, BRAF V600V Wild type, 4 days continuous exposure", "value": "> 3000", "unit": "nM"}, {"measurement": "IC50", "setting": "ES-2; 96 h, ES-2, Ovarian, BRAF V600E Heterozygous, 4 days continuous exposure", "value": 2660, "unit": "nM"}, {"measurement": "IC50", "setting": "SK-Mel-31; SK-Mel-31, Melanoma, BRAF V600E Heterozygous, 4 days continuous exposure", "value": 150, "unit": "nM"}, {"measurement": "IC50", "setting": "LOX; Melanoma, BRAF V600E Homozygous, 4 days continuous exposure", "value": 100, "unit": "nM"}, {"measurement": "IC50", "setting": "SK-Mel3; 96 h, SK-Mel3, Melanoma, BRAF V600E Heterozygous, 4 days continuous exposure", "value": 118, "unit": "nM"}, {"measurement": "IC50", "setting": "A375; A375, Melanoma, BRAF V600E Homozygous, 4 days continuous exposure", "value": 75, "unit": "nM"}, {"measurement": "IC50", "setting": "BHT 101; 96 h, BHT 101, Thyroid, BRAF V600E Heterozygous, 4 days continuous exposure", "value": 300, "unit": "nM"}, {"measurement": "IC50", "setting": "IGROV-1; 96 h, IGROV-1, Ovarian, BRAF V600V Wild type, 4 days continuous exposure", "value": 146, "unit": "nM"}, {"measurement": "IC50", "setting": "M14; 96 h, M14, Melanoma, BRAF V600E Homozygous, 4 days continuous exposure", "value": 40, "unit": "nM"}, {"measurement": "IC50", "setting": "[1]; nine of the nine V600E BRAF homozygous genotype cell lines tested", "value": "< 100", "unit": "nM"}, {"measurement": "IC50", "setting": "[2]; 25 of the 32 cell lines tested (heterozygote V600E or wild type BRAF)", "value": "> 100", "unit": "nM"}]}, {"compound": "O=C(NOC[C@H](O)CO)c1ccc(F)c(F)c1Nc1ccc(I)cc1F", "note": "[cpd. b, PD0325901]", "values": [{"measurement": "IC50", "setting": "WM-115; Homo sapiens, WM-115, 96 h, read-out: IC50 cell proliferation, WM-115, Melanoma, BRAF V600D Heterozygous", "value": "< 10", "unit": "nM"}, {"measurement": "IC50", "setting": "WM-115; read-out: IC50 cell proliferation, WM-115, Melanoma, BRAF V600D Heterozygous", "value": 10, "unit": "nM"}, {"measurement": "IC50", "setting": "TT", "value": 255, "unit": "nM"}, {"measurement": "IC50", "setting": "A204; A204, 96 h", "value": 1000, "unit": "nM"}, {"measurement": "IC50", "setting": "HT-144; HT-144, 96 h", "value": 10, "unit": "nM"}, {"measurement": "IC50", "setting": "H292", "value": 5, "unit": "nM"}, {"measurement": "IC50", "setting": "Daudi", "value": 1000, "unit": "nM"}, {"measurement": "IC50", "setting": "ES-2; ES-2, 96 h", "value": 1000, "unit": "nM"}, {"measurement": "IC50", "setting": "SK-Mel-31", "value": 18, "unit": "nM"}, {"measurement": "IC50", "setting": "LOX", "value": 57, "unit": "nM"}, {"measurement": "IC50", "setting": "SK-Mel3; SK-MEL3, 96 h", "value": 8, "unit": "nM"}, {"measurement": "IC50", "setting": "A375", "value": 5, "unit": "nM"}, {"measurement": "IC50", "setting": "BHT 101; BHT-101, 96 h", "value": 10, "unit": "nM"}, {"measurement": "IC50", "setting": "IGROV-1; IGROV-1, 96 h", "value": 39, "unit": "nM"}, {"measurement": "IC50", "setting": "M14; M14, 96 h", "value": 3, "unit": "nM"}, {"measurement": "IC50", "setting": "[1]", "value": "≤ 10", "unit": "nM"}, {"measurement": "IC50", "setting": "[2]", "value": "> 10", "unit": "nM"}]}]}
